{
  "source": "paper PMC6374164",
  "about": "(Organic & biomolecular chemistry, 2019)",
  "key": {"BPTF": {"test_system": "BPTF", "conditions": "cited from earlier work"}, "CDKL2": {"molecular_target": "T1, CDKL2 (Homo sapiens, UniProt Q92772)", "T1 sequence (Q92772 1-493)": "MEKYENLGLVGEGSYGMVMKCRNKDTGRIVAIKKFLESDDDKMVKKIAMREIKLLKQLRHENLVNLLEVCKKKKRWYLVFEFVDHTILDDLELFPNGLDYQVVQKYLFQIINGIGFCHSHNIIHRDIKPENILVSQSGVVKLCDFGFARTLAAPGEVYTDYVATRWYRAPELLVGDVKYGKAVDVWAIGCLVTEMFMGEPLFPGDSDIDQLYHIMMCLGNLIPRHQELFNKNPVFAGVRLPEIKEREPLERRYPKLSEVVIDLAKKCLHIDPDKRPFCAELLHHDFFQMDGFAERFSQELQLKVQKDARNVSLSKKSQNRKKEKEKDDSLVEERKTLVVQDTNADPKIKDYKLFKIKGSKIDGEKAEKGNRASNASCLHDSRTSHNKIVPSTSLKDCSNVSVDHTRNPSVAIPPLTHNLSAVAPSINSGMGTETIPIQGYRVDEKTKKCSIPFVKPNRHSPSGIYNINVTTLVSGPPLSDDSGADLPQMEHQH", "conditions": "tested at 1 μM; cited from earlier work"}, "p38-δ": {"test_system": "p38-δ", "conditions": "tested at 1 μM; cited from earlier work"}, "[1]": {"test": "Aqueous solubility by solution turbidity", "type": "physicochemical"}, "TRKC": {"molecular_target": "TRKC (Homo sapiens, UniProt Q16288)", "sequence (Q16288 32-839)": "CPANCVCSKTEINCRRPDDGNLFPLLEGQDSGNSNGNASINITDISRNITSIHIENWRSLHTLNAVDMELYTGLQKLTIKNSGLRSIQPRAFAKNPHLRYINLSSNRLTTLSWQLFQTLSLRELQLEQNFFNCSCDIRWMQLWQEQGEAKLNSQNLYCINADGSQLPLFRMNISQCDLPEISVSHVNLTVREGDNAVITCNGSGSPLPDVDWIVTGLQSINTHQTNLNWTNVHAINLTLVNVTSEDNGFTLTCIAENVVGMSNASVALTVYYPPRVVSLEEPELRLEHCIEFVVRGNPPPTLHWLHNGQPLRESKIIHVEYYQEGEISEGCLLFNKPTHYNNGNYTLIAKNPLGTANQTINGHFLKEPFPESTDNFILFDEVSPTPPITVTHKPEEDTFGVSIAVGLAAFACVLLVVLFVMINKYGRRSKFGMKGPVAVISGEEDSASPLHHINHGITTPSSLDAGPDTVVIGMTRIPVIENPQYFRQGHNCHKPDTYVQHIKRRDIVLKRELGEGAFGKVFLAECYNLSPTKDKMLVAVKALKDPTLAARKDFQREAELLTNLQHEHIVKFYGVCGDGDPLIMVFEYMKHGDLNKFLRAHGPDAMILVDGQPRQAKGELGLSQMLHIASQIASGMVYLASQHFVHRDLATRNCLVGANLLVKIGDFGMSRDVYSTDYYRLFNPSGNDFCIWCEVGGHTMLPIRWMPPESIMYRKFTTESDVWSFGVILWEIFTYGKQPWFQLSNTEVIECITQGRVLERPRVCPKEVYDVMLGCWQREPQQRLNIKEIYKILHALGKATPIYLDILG", "conditions": "tested at 1 μM; cited from earlier work"}, "parasite": {"test_system": "parasite", "conditions": "cited from earlier work"}, "breast epithelial cells": {"test_system": "breast epithelial cells", "conditions": "cited from earlier work"}, "BPTF bromodomain": {"molecular_target": "BPTF bromodomain (Homo sapiens, UniProt Q12830)", "test": "PrOF NMR binding to 5FW-labeled BPTF bromodomain", "conditions": "5FW BPTF bromodomain, 19F resonance of W2824"}, "HPK1": {"test_system": "HPK1", "conditions": "tested at 1 μM; cited from earlier work"}, "CDK11": {"test_system": "CDK11", "conditions": "tested at 1 μM; cited from earlier work"}, "TRKB": {"test_system": "TRKB", "conditions": "tested at 1 μM; cited from earlier work"}},
  "data": [
    {"smiles": "COC(=O)c1cccc(NC(=O)NC2CCN(c3ccnc(Nc4ccc(F)cc4)n3)C2)c1", "note": "(racemic) [rac-1]", "values": [
      {"measurement": "transcription in a BPTF-specific reporter assay", "setting": "BPTF", "result": "reducing transcription"},
      {"measurement": "inhibition of CDKL2", "setting": "CDKL2", "result": 82, "unit": "%"},
      {"measurement": "inhibition of p38-δ", "setting": "p38-δ", "result": "51–68%"},
      {"measurement": "solubility (concentration above which solution turbidity increases)", "setting": "[1]", "result": "~ 100 μM"},
      {"measurement": "inhibition of TRKC", "setting": "TRKC", "result": 82, "unit": "%"},
      {"measurement": "antimalarial activity", "setting": "parasite", "result": "has shown antimalarial activity"},
      {"measurement": "effects in breast epithelial cells", "setting": "breast epithelial cells", "result": "decreased c-MYC regulated genes, c-MYC chromatin occupancy, and led to G1 cell cycle arrest"},
      {"measurement": "PrOF NMR binding behaviour of the 5FW BPTF resonance", "setting": "BPTF bromodomain", "result": "significant broadening of the fluorine resonance"},
      {"measurement": "inhibition of HPK1", "setting": "HPK1", "result": "51–68%"},
      {"measurement": "inhibition of CDK11", "setting": "CDK11", "result": "51–68%"},
      {"measurement": "inhibition of TRKB", "setting": "TRKB", "result": "51–68%"}
    ]}
  ]
}
